Measurements from ChEMBL document CHEMBL4477208, “Discovery and Rational Design of Pteridin-7(8H)-one-Based Inhibitors Targeting FMS-like Tyrosine Kinase 3 (FLT3) and Its Mutants” (J Med Chem, 2016).
Activity calls are given as the source filed them. The calls are words filed in the database; no cut-off is given here.

Legend:
[1] = target: T1, Receptor-type tyrosine-protein kinase FLT3 (Homo sapiens, UniProt P36888)
T1 sequence (P36888 whole entry): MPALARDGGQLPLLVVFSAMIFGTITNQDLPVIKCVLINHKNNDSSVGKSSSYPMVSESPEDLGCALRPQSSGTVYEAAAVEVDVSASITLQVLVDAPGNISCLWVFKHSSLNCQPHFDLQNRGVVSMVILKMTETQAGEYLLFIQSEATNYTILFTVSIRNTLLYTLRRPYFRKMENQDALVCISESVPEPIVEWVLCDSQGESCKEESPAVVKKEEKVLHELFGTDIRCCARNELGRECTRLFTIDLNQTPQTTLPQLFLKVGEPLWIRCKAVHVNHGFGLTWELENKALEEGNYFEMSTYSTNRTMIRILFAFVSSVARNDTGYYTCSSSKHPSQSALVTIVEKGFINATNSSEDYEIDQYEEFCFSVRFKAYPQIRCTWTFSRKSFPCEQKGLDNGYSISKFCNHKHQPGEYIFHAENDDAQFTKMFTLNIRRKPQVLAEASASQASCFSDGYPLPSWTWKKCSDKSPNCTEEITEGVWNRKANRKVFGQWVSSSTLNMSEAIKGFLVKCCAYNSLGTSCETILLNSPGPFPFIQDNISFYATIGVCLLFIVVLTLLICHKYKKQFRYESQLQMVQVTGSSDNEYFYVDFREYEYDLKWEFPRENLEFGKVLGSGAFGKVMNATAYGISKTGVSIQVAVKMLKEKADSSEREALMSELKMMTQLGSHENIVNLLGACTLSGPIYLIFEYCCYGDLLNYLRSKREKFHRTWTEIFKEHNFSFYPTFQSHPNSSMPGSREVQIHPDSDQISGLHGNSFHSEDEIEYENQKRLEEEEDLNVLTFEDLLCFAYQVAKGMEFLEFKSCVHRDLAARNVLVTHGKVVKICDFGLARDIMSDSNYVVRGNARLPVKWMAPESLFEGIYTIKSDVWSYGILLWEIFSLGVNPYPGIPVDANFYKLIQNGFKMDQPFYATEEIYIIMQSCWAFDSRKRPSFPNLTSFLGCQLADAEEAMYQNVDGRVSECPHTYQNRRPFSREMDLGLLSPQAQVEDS
Description: Inhibition of human N-terminal GST-tagged FLT3 (564 to 993 residues) expressed in baculovirus expression system using peptide FAM-P2 as substrate incubated for 10 mins followed by substrate addition by mobility shift assay

MV4-11 [2] = assay: cells; details: Homo sapiens, MV4-11, 72 h
Description: Antiproliferative activity against human MV4-11 cells harboring FLT3-ITD mutant after 72 hrs by MTT assay

K562 = assay: cells; details: Homo sapiens, K562, 72 h
Description: Antiproliferative activity against FLT3-deficient human K562 cells after 72 hrs by MTT assay

WI-38 = assay: cells; details: Homo sapiens, WI-38, 72 h
Description: Antiproliferative activity against human WI38 cells after 72 hrs by SRB assay

[3] = target: Receptor-type tyrosine-protein kinase FLT3 (Homo sapiens) (UniProt P36888); assay: Inhibition of FLT3 (unknown origin) at 10 uM
[4] = target: Receptor-type tyrosine-protein kinase FLT3 (Homo sapiens) (UniProt P36888); assay: Inhibition of FLT3 (unknown origin) at 1 uM
MV4-11 [5] = assay: Induction of apoptosis in human MV4-11 cells at 1000 nM after 48 hrs by annexin V/propidium iodide staining based FACS analysis; type: functional, cell-based
MV4-11 [6] = assay: Cell cycle arrest in human MV4-11 cells at 1000 nM after 48 hrs by PI/RNase staining based FACS analysis; type: functional

SMILES | IC50 [1] | IC50 (MV4-11 [2]) | IC50 (K562) | IC50 (WI-38) | inhibition [3] | inhibition [4] | Activity (MV4-11 [5]) | Activity (MV4-11 [6])
C=CC(=O)Nc1cccc(-n2c(=O)cnc3cnc(Nc4ccc(N5CCN(C)CC5)cc4OC)nc32)c1 | 1.32 µM | 2.89 µM | > 10 µM | 8.24 µM | – | – | – | –
C=CC(=O)Nc1ccc(-n2c(=O)cnc3cnc(Nc4ccccc4)nc32)cc1 | 0.165 µM | > 10 µM | > 10 µM | > 10 µM | – | – | – | –
COc1ccc(Nc2ncc3ncc(=O)n(-c4ccc(NC(=O)/C=C/CN(C)C)cc4)c3n2)cc1 | 0.184 µM | 2.17 µM | > 10 µM | > 10 µM | – | – | – | –
CN1CCN(c2ccc(Nc3ncc4ncc(=O)n(-c5ccc(CN)cc5)c4n3)cc2)CC1 | – | 0.326 µM | 9.96 µM | > 10 µM | – | – | – | –
COc1ccc(Nc2ncc3ncc(=O)n(-c4ccc(N)cc4)c3n2)cc1Cl | – | 1.95 µM | > 10 µM | > 10 µM | – | – | – | –
C=CC(=O)Nc1cccc(-n2c(=O)cnc3cnc(Nc4ccc(N5CCN(C)CC5)cc4)nc32)c1 | 0.312 µM | 0.792 µM | > 10 µM | > 10 µM | 99% | 82% | – | –
COc1ccc(Nc2ncc3ncc(=O)n(-c4ccc(N)cc4)c3n2)c(C)c1 | – | 6.04 µM | > 10 µM | > 10 µM | – | – | – | –
C=CC(=O)Nc1ccc(-n2c(=O)cnc3cnc(Nc4ccc(N5CCN(C)CC5)cc4OC)nc32)cc1 | 0.153 µM | 0.814 µM | > 10 µM | > 10 µM | – | – | – | –
C=CC(=O)Nc1ccc(-n2c(=O)cnc3cnc(Nc4ccc(N5CCOCC5)cc4)nc32)cc1 | 0.173 µM | 3.49 µM | > 10 µM | > 10 µM | – | – | – | –
C=CC(=O)Nc1cccc(-n2c(=O)cnc3cnc(Nc4ccc(NC(C)=O)cc4)nc32)c1 | 5.45 µM | 7.38 µM | > 10 µM | > 10 µM | – | – | – | –
C=CC(=O)Nc1ccc(-n2c(=O)cnc3cnc(Nc4ccc(N5CCN(C)CC5)cc4)nc32)cc1 | 0.047 µM | 0.835 µM | > 10 µM | > 10 µM | – | – | – | –
C=CC(=O)Nc1cccc(-n2c(=O)cnc3cnc(Nc4ccccc4)nc32)c1 | 2.92 µM | 5.51 µM | > 10 µM | > 10 µM | – | – | – | –
COc1cc(Nc2ncc3ncc(=O)n(-c4ccc(N)cc4)c3n2)ccc1N1CCN(C)CC1 | – | 0.093 µM | > 10 µM | > 10 µM | – | – | – | –
CN1CCN(c2ccc(Nc3ncc4ncc(=O)n(-c5ccc(N6CCNCC6)cc5)c4n3)cc2)CC1 | – | 0.168 µM | > 10 µM | > 10 µM | – | – | – | –
COc1ccc(Nc2ncc3ncc(=O)n(-c4cccc(N)c4)c3n2)cc1 | 0.034 µM | 3.49 µM | > 10 µM | > 10 µM | – | – | – | –
C=CC(=O)Nc1cccc(-n2c(=O)cnc3cnc(Nc4ccc(Cl)cc4)nc32)c1 | 3.59 µM | 4.04 µM | > 10 µM | > 10 µM | – | – | – | –
C=CC(=O)Nc1ccc(-n2c(=O)cnc3cnc(Nc4ccc(Cl)cc4)nc32)cc1 | 0.384 µM | > 10 µM | > 10 µM | > 10 µM | – | – | – | –
C=CC(=O)Nc1cccc(-n2c(=O)cnc3cnc(Nc4ccc(N5CCCCC5)cc4)nc32)c1 | 1.75 µM | > 10 µM | > 10 µM | > 10 µM | – | – | – | –

SMILES | IC50 [1] | IC50 (MV4-11 [2]) | IC50 (K562) | IC50 (WI-38) | inhibition [3] | inhibition [4] | Activity (MV4-11 [5]) | Activity (MV4-11 [6])
C=CC(=O)Nc1cccc(-n2c(=O)cnc3cnc(Nc4ccc(OC)cc4)nc32)c1 | 1.87 µM | 2.61 µM | > 10 µM | 8.71 µM | – | – | – | –
CN1CCN(c2ccc(Nc3ncc4ncc(=O)n(-c5ccc(N)cc5)c4n3)cc2)CC1 | – | 0.297 µM | > 10 µM | > 10 µM | – | – | Active | Active
CN1CCN(c2ccc(Nc3ncc4ncc(=O)n(-c5ccc(N)cc5)c4n3)cc2Cl)CC1 | – | 0.098 µM | > 10 µM | 3.49 µM | – | – | – | –
CC(=O)Nc1ccc(-n2c(=O)cnc3cnc(Nc4ccc(N5CCN(C)CC5)cc4)nc32)cc1 | – | 0.415 µM | > 10 µM | > 10 µM | – | – | – | –
CN1CCN(c2ccc(Nc3ncc4ncc(=O)n(-c5cccc(N)c5)c4n3)cc2)CC1 | – | 0.383 µM | > 10 µM | > 10 µM | – | – | – | –
COc1ccc(Nc2ncc3ncc(=O)n(-c4ccc(N)cc4)c3n2)cc1 | 0.029 µM | 6.89 µM | > 10 µM | > 10 µM | – | – | – | –
CN1CCN(c2ccc(Nc3ncc4ncc(=O)n(-c5ccc(NS(C)(=O)=O)cc5)c4n3)cc2)CC1 | – | 1.15 µM | > 10 µM | > 10 µM | – | – | – | –
C=CC(=O)Nc1cccc(-n2c(=O)cnc3cnc(Nc4ccc(N5CCCC5)cc4)nc32)c1 | 1.53 µM | > 10 µM | > 10 µM | > 10 µM | – | – | – | –
COc1ccc(Nc2ncc3ncc(=O)n(-c4cccc(NC(=O)/C=C/CN(C)C)c4)c3n2)cc1 | – | 2.72 µM | > 10 µM | > 10 µM | – | – | – | –
C=CC(=O)Nc1cccc(-n2c(=O)cnc3cnc(Nc4ccc(N5CCOCC5)cc4)nc32)c1 | 1.14 µM | > 10 µM | > 10 µM | > 10 µM | – | – | – | –
COc1ccc(Nc2ncc3ncc(=O)n(-c4ccc(NC(C)=O)cc4)c3n2)cc1 | – | 3.88 µM | > 10 µM | > 10 µM | – | – | – | –
C=CC(=O)Nc1ccc(-n2c(=O)cnc3cnc(Nc4ccc(OC)cc4)nc32)cc1 | 0.108 µM | 3.81 µM | > 10 µM | > 10 µM | – | – | – | –
C=CC(=O)Nc1cccc(-n2c(=O)cnc3cnc(Nc4ccc(CC(N)=O)cc4)nc32)c1 | – | > 10 µM | > 10 µM | > 10 µM | – | – | – | –
COc1cc2c(N3CCN(C(=O)Nc4ccc(OC(C)C)cc4)CC3)ncnc2cc1OCCCN1CCCCC1 [TANDUTINIB] | – | 0.302 µM | > 10 µM | > 10 µM | – | – | – | –
COc1ccc(Nc2ncc3ncc(=O)n(-c4ccc(NS(C)(=O)=O)cc4)c3n2)cc1 | – | 2.94 µM | > 10 µM | > 10 µM | – | – | – | –
CN1CCN(c2ccc(Nc3ncc4ncc(=O)n(-c5ccc(N)cc5)c4n3)cc2F)CC1 | – | 1.42 µM | > 10 µM | > 10 µM | – | – | – | –
C=CC(=O)Nc1cccc(-n2c(=O)cnc3cnc(Nc4ccc(N(CC)CC)cc4)nc32)c1 | 1.06 µM | 5.56 µM | > 10 µM | > 10 µM | – | – | – | –
